Like-named read-outs stand apart in the source and are kept apart here.
How the values were obtained:
ROCK2 = target: T1, ROCK2 (Homo sapiens, UniProt O75116); test: Cell-Based Assay, ROCK2 (HAP1 knockout cells, phospho-MYPT1 Thr853 ELISA); details: read-out: Results from Cell-Based Assay IC50 (μM) ROCK2
T1 construct: endogenous in cells; host or cells: HAP1 knockout cells
Description: (§1) Part II—Procedure for Determining ROCK Inhibition Ability of Test Compounds Using a Cell-Base Assay
(§2) The Cell-Based Assay for determining ROCK inhibition ability of test compounds utilized a genetically modified HAP1 cell line engineered to eliminate expression of either ROCK1 or ROCK2. In the procedure, HAP1 knockout cells are grown in Iscove's Modified Dulbecco's Medium that is additionally supplemented with 10% fetal bovine and 1x antibiotic-antimycotic mixture. Cells are plated in 96 well tissue culture plates at 1×10^5 cells/well (100 μL, of cells at 1×10^6/mL). Test compounds are solubilized in DMSO and diluted into the same media used to grow the cells. A 100 μL, aliquot of each compound dilution in media is added to each well containing the HAP1 cells and incubated at 37° C. for 30 minutes. Following compound incubation, the cells are pelleted by centrifugation at 1800 rpm for 5 minutes at 4° C. Media is removed from the cell pellet and the cells lysed and de-salted. An 80 μL, aliquot of each cell lysate is added to a single well of a 96-well high binding ELISA plate which has been pre-coated with a MYPT1 capture antibody and incubated at 4° C. overnight. The following day the ELISA plate is washed 4× with 0.05% Tween-20 in PBS. After washing, an anti-phospho-MYPT1 (Thr853) antibody is added and allowed to bind for 1 hour at room temperature. The wash step is repeated, and then an anti-rabbit HRP detection antibody is added and allowed to incubate at room temperature for 1 hour. The wash step is then repeated and 100 μL/well 1-Step™ Ultra TMB substrate is added to the ELISA plate and allowed to develop for approximately 5 minutes. The reaction is stopped by addition of H2SO4. Absorbance is read at 450 OD. Data is analyzed using GraphPad Prism software to calculate the 50% inhibitory concentration of test compound (IC50).

[1] = target: T2, GST-tagged human ROCK1 catalytic domain 1-477 (Homo sapiens, UniProt Q13464); test: Isolated Enzyme Assay, ROCK1 (LANCE Ultra ULight-CREBtide FRET); type: biochemical; details: isolated enzyme assay; 30 μM highest concentration tested; read-out: Results from Isolated Enzyme Assay IC50 (μM) ROCK1
T2 construct: human ROCK1 catalytic domain 1-477 from Carna Biosciences (cat #01-109); purchased Carna Biosciences 01-109; host or cells: baculovirus expression system
Description: (§3) Exemplary compounds were tested for ability to inhibit Rho-associated protein kinase isoform 1 (ROCK1) and Rho-associated protein kinase isoform 2 (ROCK2). Assay procedures and results are described below.
(§4) Part I—Procedure for Determining ROCK Inhibition Ability of Test Compounds Using an Isolated Enzyme Assay
(§5) Protein constructs were purified from a baculovirus expression system. The peptide substrate was fluorescent LANCE® Ultra ULight-CREBtide: […] (PerkinElmer, # TRF0107-D). Kinase reactions were carried out in a 10 μL volume in 384-well plates: 50 nM ULight-CREBtide substrate, 2 nM constitutively active ROCK1 or ROCK2 kinase, and test compound in DMSO (or DMSO only for controls) were diluted into assay buffer containing 50 mM Tris-HCl (pH=7.5), 10 mM MgCl2, 1 mM EGTA, 0.01% Tween-20, and 2 mM DTT such that the final concentration of DMSO was 0.5%. After a 90 minute incubation at room temperature on a shaker table, the kinase reaction was stopped by addition of 10 mM EDTA, and phosphorylation of the substrate was detected by adding 1 nM LANCE® Ultra Europium-anti-phospho-CREB (ser133) antibody (PerkinElmer, # TRF0200-D) and incubating for 60 minutes on a shaker at room temperature. The fluorescence resonance energy transfer (FRET) signals were read and analyzed on an Envision™ 2103 Multilabel Reader (Perkin Elmer). The concentration of test compound required to inhibit substrate phosphorylation by 50% (the IC50) was calculated by non-linear regression using GraphPad PRIZM.

ROCK1 = target: T3, ROCK1 (Homo sapiens, UniProt Q13464); test: Cell-Based Assay, ROCK1 (HAP1 knockout cells, phospho-MYPT1 Thr853 ELISA); details: read-out: Results from Cell-Based Assay IC50 (μM) ROCK1
T3 construct: endogenous in cells; host or cells: HAP1 knockout cells
Description: as §1, §2

[2] = target: T4, GST-tagged human ROCK2 catalytic domain 1-553 (Homo sapiens, UniProt O75116); test: Isolated Enzyme Assay, ROCK2 (LANCE Ultra ULight-CREBtide FRET); type: biochemical; details: isolated enzyme assay; 30 μM highest concentration tested; read-out: Results from Isolated Enzyme Assay IC50 (μM) ROCK2
T4 construct: GST-tagged human ROCK2 catalytic domain 1-553 from Carna Biosciences (Cat #01-110); purchased Carna Biosciences 01-110; host or cells: baculovirus expression system
Description: as §3, §4, §5

T1 sequence (O75116 whole entry): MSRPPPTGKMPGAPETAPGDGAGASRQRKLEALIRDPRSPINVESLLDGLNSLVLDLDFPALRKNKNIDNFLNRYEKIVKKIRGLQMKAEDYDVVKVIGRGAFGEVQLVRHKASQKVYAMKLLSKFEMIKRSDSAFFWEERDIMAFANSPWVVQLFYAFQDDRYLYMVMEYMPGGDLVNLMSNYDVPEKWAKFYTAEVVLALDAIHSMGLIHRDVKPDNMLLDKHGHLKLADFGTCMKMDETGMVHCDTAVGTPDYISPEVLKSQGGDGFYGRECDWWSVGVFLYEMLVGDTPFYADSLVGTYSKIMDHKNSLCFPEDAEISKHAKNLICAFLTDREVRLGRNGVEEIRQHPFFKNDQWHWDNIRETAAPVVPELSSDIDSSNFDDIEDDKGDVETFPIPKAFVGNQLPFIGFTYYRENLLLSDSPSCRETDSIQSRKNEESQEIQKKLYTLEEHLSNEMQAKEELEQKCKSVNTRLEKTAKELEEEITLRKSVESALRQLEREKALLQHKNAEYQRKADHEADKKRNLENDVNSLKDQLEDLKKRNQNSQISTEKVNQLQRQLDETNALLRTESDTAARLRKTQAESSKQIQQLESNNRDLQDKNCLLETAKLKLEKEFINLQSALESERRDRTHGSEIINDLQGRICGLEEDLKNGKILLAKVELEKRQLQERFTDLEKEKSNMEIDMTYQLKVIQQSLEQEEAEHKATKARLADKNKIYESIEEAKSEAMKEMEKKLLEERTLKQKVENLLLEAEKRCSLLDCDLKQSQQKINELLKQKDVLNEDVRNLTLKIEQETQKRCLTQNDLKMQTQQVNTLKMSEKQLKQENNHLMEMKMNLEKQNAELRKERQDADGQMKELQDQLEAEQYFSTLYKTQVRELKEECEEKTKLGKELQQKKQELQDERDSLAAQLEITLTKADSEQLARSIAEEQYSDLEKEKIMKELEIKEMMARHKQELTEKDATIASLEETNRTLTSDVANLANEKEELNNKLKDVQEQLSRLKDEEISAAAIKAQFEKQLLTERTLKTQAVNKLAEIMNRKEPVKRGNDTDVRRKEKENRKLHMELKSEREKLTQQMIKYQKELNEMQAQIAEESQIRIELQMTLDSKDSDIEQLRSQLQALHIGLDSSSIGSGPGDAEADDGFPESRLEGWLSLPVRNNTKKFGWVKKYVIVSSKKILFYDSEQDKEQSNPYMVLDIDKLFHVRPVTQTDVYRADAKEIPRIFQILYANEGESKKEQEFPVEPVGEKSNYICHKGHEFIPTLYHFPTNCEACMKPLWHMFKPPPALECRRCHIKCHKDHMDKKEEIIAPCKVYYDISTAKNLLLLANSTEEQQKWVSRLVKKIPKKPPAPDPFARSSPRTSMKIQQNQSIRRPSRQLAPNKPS
T2 sequence (Q13464 1-477): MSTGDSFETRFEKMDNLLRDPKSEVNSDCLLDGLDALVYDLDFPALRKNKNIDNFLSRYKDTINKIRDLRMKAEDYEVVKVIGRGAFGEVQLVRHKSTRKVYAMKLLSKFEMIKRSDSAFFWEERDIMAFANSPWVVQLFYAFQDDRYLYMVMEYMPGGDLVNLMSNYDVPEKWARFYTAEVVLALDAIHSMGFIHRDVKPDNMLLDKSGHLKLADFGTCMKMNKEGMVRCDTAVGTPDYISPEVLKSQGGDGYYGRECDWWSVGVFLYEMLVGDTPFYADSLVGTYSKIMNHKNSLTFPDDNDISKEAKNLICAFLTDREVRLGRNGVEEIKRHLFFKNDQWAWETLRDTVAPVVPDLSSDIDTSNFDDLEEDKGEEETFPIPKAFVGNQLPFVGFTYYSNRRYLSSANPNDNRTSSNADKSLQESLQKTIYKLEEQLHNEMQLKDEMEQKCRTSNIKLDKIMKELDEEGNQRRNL
T4 sequence (O75116 1-553): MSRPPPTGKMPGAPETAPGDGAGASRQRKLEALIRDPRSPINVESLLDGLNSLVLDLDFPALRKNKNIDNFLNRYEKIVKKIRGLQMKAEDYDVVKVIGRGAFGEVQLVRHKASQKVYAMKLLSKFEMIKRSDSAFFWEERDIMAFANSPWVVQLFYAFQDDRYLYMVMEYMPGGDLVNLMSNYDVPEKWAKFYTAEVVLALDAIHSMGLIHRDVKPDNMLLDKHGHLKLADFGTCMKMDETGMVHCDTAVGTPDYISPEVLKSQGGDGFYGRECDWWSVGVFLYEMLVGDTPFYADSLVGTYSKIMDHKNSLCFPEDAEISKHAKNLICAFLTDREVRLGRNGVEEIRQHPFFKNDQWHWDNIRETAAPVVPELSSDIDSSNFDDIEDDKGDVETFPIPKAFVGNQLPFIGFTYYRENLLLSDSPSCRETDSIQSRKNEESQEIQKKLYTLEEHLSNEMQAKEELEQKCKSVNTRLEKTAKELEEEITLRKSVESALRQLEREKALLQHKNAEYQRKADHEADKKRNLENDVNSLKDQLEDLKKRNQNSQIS
T3 sequence (Q13464 whole entry): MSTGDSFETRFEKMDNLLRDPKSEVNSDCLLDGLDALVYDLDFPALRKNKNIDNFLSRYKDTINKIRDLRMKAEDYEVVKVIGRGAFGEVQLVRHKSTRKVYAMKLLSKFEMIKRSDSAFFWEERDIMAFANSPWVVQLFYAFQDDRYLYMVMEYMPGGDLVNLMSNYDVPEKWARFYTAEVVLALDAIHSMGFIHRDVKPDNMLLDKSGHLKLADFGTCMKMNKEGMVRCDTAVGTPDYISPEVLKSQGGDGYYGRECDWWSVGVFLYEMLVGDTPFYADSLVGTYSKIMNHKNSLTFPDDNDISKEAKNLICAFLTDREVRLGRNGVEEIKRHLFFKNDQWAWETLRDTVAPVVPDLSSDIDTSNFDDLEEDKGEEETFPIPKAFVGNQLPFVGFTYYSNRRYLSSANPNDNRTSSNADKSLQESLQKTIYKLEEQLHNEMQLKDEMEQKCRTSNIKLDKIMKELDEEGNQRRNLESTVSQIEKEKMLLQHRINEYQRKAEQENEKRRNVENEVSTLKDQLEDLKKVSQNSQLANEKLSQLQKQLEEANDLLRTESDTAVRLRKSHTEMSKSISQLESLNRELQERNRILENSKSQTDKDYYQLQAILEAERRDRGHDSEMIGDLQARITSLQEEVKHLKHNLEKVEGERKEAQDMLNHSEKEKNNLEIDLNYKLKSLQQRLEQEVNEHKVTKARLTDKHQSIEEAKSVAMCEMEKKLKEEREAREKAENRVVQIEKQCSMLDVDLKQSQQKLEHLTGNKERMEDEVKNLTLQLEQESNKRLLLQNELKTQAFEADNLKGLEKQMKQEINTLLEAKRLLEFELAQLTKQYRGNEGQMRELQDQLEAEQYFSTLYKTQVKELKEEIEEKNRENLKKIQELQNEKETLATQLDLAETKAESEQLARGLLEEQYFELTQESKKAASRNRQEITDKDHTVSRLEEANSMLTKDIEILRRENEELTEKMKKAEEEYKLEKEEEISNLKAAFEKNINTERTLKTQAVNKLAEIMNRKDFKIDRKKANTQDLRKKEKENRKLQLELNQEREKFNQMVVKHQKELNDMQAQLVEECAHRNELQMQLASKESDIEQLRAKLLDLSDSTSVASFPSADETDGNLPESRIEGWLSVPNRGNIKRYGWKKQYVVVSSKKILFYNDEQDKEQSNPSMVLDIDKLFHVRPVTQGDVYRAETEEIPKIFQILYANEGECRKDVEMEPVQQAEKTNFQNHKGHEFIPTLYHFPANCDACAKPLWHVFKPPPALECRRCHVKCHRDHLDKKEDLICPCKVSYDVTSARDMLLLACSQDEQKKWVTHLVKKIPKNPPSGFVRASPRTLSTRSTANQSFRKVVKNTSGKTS

Structure (SMILES) | IC50 (ROCK2; class symbols) | IC50 [1] | IC50 (ROCK1; numeric bound) | IC50 [2] | IC50 (ROCK2; numeric bound) | IC50 (ROCK1; class symbols)
Cn1nccc1C(=O)Nc1cc(-c2nsc(Nc3ccc4[nH]ncc4c3Cl)n2)cn(C)c1=O [IV-6] | < 1 µM | < 1 µM | > 10 µM | < 1 µM |  | 
COc1ncc(C(=O)Nc2cc(-c3nsc(Nc4ccc5[nH]ncc5c4Cl)n3)cn(C)c2=O)cn1 [IV-7] |  | > 30 µM | > 10 µM | < 1 µM | > 10 µM | 
COc1ncc(C(=O)Nc2cncc(-c3nsc(Nc4ccc5[nH]ncc5c4Cl)n3)c2)cn1 [IV-8] |  | > 30 µM | > 10 µM | < 1 µM | > 10 µM | 
CC(C)NC(=O)COc1cccc(-c2nsc(Nc3ccc4[nH]ncc4c3Cl)n2)c1 [IV-9] | < 1 µM | < 1 µM |  | < 1 µM |  | 1 to 15 µM
Cn1ccc(C(=O)Nc2cc(-c3nsc(Nc4ccc5[nH]ncc5c4Cl)n3)cn(C)c2=O)n1 [IV-10] |  | > 30 µM | > 10 µM | < 1 µM | > 10 µM | 
Cc1cnc(-c2cc(-c3nsc(Nc4ccc5[nH]ncc5c4Cl)n3)cn(C)c2=O)o1 [IV-12] | < 1 µM | < 1 µM | > 10 µM | < 1 µM |  | 
Cc1cc(NC(=O)c2ccnn2C)cc(-c2nsc(Nc3ccc4[nH]ncc4c3Cl)n2)n1 [IV-13] |  | < 1 µM | > 10 µM | < 1 µM | > 10 µM | 
CC(C)NC(=O)c1cc(-c2nsc(Nc3ccc4[nH]ncc4c3Cl)n2)ccc1F [IV-14] | < 1 µM | < 1 µM |  | < 1 µM |  | 1 to 15 µM
Cc1coc(-c2cccc(-c3nsc(Nc4ccc5[nH]ncc5c4F)n3)c2)n1 [IV-15] | < 1 µM | < 1 µM | > 10 µM | < 1 µM |  | 
Oc1ccn(-c2cccc(-c3nsc(Nc4ccc5[nH]ncc5c4Cl)n3)c2)n1 [IV-17] | 1 to 15 µM | < 1 µM | > 10 µM | < 1 µM |  | 
Cc1cc(NC(=O)c2cocn2)cc(-c2nsc(Nc3ccc4[nH]ncc4c3Cl)n2)n1 [IV-19] | < 1 µM | < 1 µM | > 10 µM | < 1 µM |  | 
CC(C)(O)CNC(=O)c1cc(-c2nsc(Nc3ccc4[nH]ncc4c3Cl)n2)ccc1F [IV-22] | < 1 µM | < 1 µM |  | < 1 µM |  | 1 to 15 µM
Cc1cc(NC(=O)c2cn(C)cn2)cc(-c2nsc(Nc3ccc4[nH]ncc4c3Cl)n2)n1 [IV-26] | < 1 µM | < 1 µM | > 10 µM | < 1 µM |  | 
C[C@@H]1CN(c2cccc(-c3nsc(Nc4ccc5[nH]ncc5c4Cl)n3)c2)C(=O)O1 [IV-31] | < 1 µM | < 1 µM |  | < 1 µM |  | 1 to 15 µM
C[C@H]1CN(c2cccc(-c3nsc(Nc4ccc5[nH]ncc5c4Cl)n3)c2)C(=O)O1 [IV-32] | < 1 µM | < 1 µM |  | < 1 µM |  | 1 to 15 µM
CC1(C)CN(c2cccc(-c3nsc(Nc4ccc5[nH]ncc5c4Br)n3)c2)C(=O)O1 [IV-35] | < 1 µM | < 1 µM |  | < 1 µM |  | 1 to 15 µM
CC1COCCN1C(=O)Nc1cc(-c2nsc(Nc3ccc4[nH]ncc4c3Cl)n2)ccn1 (stereo not drawn) [IV-38] | < 1 µM | < 1 µM |  | < 1 µM |  | 1 to 15 µM
Cc1cc(C(=O)Nc2cncc(-c3nsc(Nc4ccc5[nH]ncc5c4Cl)n3)c2)n(C)n1 [IV-42] | < 1 µM | > 30 µM | > 10 µM | > 30 µM |  | 

Structure (SMILES) | IC50 (ROCK2; class symbols) | IC50 [1] | IC50 (ROCK1; numeric bound) | IC50 [2] | IC50 (ROCK2; numeric bound) | IC50 (ROCK1; class symbols)
CN1CCC(NC(=O)c2cc(-c3nsc(Nc4ccc5[nH]ncc5c4Cl)n3)ccc2F)CC1 [IV-46] | < 1 µM | < 1 µM | > 10 µM | < 1 µM |  | 
O=C(NC1CCOCC1)c1cc(-c2nsc(Nc3ccc4[nH]ncc4c3Cl)n2)ccc1F [IV-47] | < 1 µM | < 1 µM |  | < 1 µM |  | 1 to 15 µM
O=C(NC1CCCC1)c1cc(-c2nsc(Nc3ccc4[nH]ncc4c3Cl)n2)ccc1F [IV-48] | < 1 µM | < 1 µM |  | < 1 µM |  | 1 to 15 µM
CNC(=O)c1cc(-c2nsc(Nc3ccc4[nH]ncc4c3Cl)n2)ccc1F [IV-49] | < 1 µM | < 1 µM | > 10 µM | < 1 µM |  | 
Cn1cc(-c2nsc(Nc3ccc4[nH]ncc4c3Cl)n2)cc(NC(=O)c2ccccc2F)c1=O [IV-50] | < 1 µM | > 30 µM | > 10 µM | < 1 µM |  | 
CC1(C)CN(c2cccc(-c3nsc(Nc4ccc5[nH]ncc5c4Cl)n3)c2)C(=O)O1 [IV-54] | < 1 µM | < 1 µM |  | < 1 µM |  | 1 to 15 µM
O=C1OCCN1c1cccc(-c2nsc(Nc3ccc4[nH]ncc4c3Cl)n2)c1 [IV-55] | < 1 µM | < 1 µM |  | < 1 µM |  | 1 to 15 µM
CC1(C)CCN(c2cccc(-c3nsc(Nc4ccc5[nH]ncc5c4Cl)n3)c2)C1=O [IV-56] | < 1 µM | < 1 µM |  | < 1 µM |  | 1 to 15 µM
Cc1cc(C(=O)Nc2cc(-c3nsc(Nc4ccc5[nH]ncc5c4Cl)n3)ccn2)n(C)n1 [IV-58] | < 1 µM | > 30 µM | > 10 µM | < 1 µM |  | 
Cc1coc(-c2cc(-c3nsc(Nc4ccc5[nH]ncc5c4Cl)n3)ccn2)n1 [IV-59] | < 1 µM | > 30 µM | > 10 µM | < 1 µM |  | 
Cc1nc(C)c(C(=O)Nc2cccc(-c3nsc(Nc4ccc5[nH]ncc5c4Cl)n3)c2)o1 [IV-61] | < 1 µM | < 1 µM | > 10 µM | < 1 µM |  | 
Cn1nncc1C(=O)Nc1cccc(-c2nsc(Nc3ccc4[nH]ncc4c3Cl)n2)c1 [IV-62] | < 1 µM | < 1 µM | > 10 µM | < 1 µM |  | 
CC(C)c1cc(C(=O)Nc2cccc(-c3nsc(Nc4ccc5[nH]ncc5c4Cl)n3)c2)n(C)n1 [IV-63] | < 1 µM | < 1 µM |  | < 1 µM |  | 1 to 15 µM
O=C(Nc1cccnc1)c1cccc(-c2nsc(Nc3ccc4[nH]ncc4c3Cl)n2)c1 [IV-65] | < 1 µM | < 1 µM | > 10 µM | < 1 µM |  | 
O=C(Nc1ccccn1)c1cccc(-c2nsc(Nc3ccc4[nH]ncc4c3Cl)n2)c1 [IV-66] | < 1 µM | < 1 µM |  | < 1 µM |  | 1 to 15 µM
COc1ncc(C(=O)Nc2cccc(-c3nsc(Nc4ccc5[nH]ncc5c4Cl)n3)c2)cn1 [IV-70] | < 1 µM | < 1 µM | > 10 µM | < 1 µM |  | 
O=C(CC1CCCO1)Nc1cccc(-c2nsc(Nc3ccc4[nH]ncc4c3Cl)n2)c1 (stereo not drawn) [IV-71] | < 1 µM | < 1 µM |  | < 1 µM |  | 1 to 15 µM
Cn1cc(C(=O)Nc2cccc(-c3nsc(Nc4ccc5[nH]ncc5c4Cl)n3)c2)c(C(F)(F)F)n1 [IV-72] | < 1 µM | < 1 µM |  | < 1 µM |  | 1 to 15 µM
